Experimental data published in patent publication US4298594A, “Xenobiotic delivery vehicles, method of forming them and method of using them” (Arthur D. Little, Inc., priority 1980, dated 1981).
Entries after “also recorded” stand apart in the source; their conditions may differ.

Columns and labels:
[1] = in vivo; cited from earlier work
[2] = plasma kinetics of daunomycin in rats, intravenous
Protocol: A control sample of free daunomycin at the same concentration and in the same buffer was also prepared.
0.5 ml of blood was taken at various time points from each rat. The plasma was separated from the blood samples and assayed for daunomycin fusing fluorescence. The data thus obtained are plotted in FIG. 10 as a function of time after injection.

[3] = within two minutes after administration; cited from earlier work
P388 tumor cells = details: 4 mg/kg ip daily for 5 days
Protocol: A number of mice were injected intraperitoneally with 1×10^6 P388 tumor cells. […] One group of mice, used as a control, received no drug in any form. Five mice were used for each protocol and two different dosage levels, 4 mg/kg and 2 mg/kg, were used.

[4] = in vitro stability of microreservoirs and liposomes (optical density ratio A400/A600, thin layer chromatograms); assay type: physicochemical; details: after sonication and centrifugation
Protocol: Both of the suspensions were then spun at 100,000 g for one hour to remove any undispersed lipid.
Aliquots of 4 ml of each sample were then placed into stoppered curvettes and the samples were incubated at 37° C. At various points in time optical densities of the two solutions at 400 nm and 600 nm were determined. […] Since both structures initially had essentially the same molecular size, the ratio of A400/A600 is an indication of any increase in the particle size due to the breakdown of the structural organization of the liposome.

L1210 leukemic cells = assay: chemotherapy of L1210 leukemic mice with adriamycin, survival; details: 4 mg/kg ip, days 1 through 5; day 24; listed as free adriamycin
Protocol: 72 normal mice were each innoculated with 10^6 L1210 leukemic cells by intraperitoneal injection on day zero. […] The drug in all cases was also given by intraperitoneal injection and the dosages were repeated daily on days 1 through 5. The dosage levels chosen were 4 mg/kg, 2 mg/kg, 1 mg/kg and 0.5 mg/kg.

[5] = cited from earlier work
[6] = binding of adriamycin to microreservoirs; assay type: physicochemical
Protocol: With this 2 mg (3.45 μmoles) of adriamycin was used. In the five samples, the amount of phosphatidic acid in the total lipid constituent was varied from zero to 25%. […] The aqueous suspensions were each sonicated at 52° C. for 15 minutes. Each sample was passed down through a 2.5×50 cm Sephadex G-50 gel column to separate free and bound adriamycin.
2875 μmoles of purified soybean phosphatidyl chloine (specific activity 2296 ^3 H dpm/μmole) 720 μmoles of soybean phosphatidic acid and 720 μmoles of cholesteryl oleate (specific activity of 3638 ^14 C dpm/μmole) were dissolved in choloroform and taken to dryness by pumping overnight against a vacuum. The resulting solid material was hydrated with 20 ml of 10 mM of trihydroxymethylamine (pH 9.1) and the liquid was sonicated at 52° C. under a nitrogen atmosphere for 15 minutes. The pH of the solution was lowered to 7.2 and then it was centrifuged for one hour at 100,000 g. 34.9 mg of adriamycin was added to the clear supernatant and it was then allowed to incubate for 30 minutes at room temperature. After this incubation, the ionic strength of the solution was increased to 0.154 M NaCl; and it was passed down a 4.3×37 cm G-50 Sephadex G-50 gel column using 0.154 M NaCl and 10 mM trihydroxymethylamine as the eluting solvent.

normal mice = assay: toxicity of adriamycin in normal mice, survival; assay type: in vivo; details: 4 mg/kg ip daily for five days, six mice; listed as free adriamycin
Protocol: Two dosages levels of the drug were chosen--4 mg/kg and 2 mg/kg. In each case, six normal mice received the injections each day for five days and then they were observed thereafter to determine the number of survivors. The results are plotted in FIG. 16.

L1210 leukemia system = details: mouse; cited from earlier work
P388 leukemia system = details: mouse; cited from earlier work
[7] = affinity for and efflux of estradiol undecanoate from vesicular and nonvesicular microreservoirs; assay type: physicochemical
Protocol: The resulting liquid was sonicated at 40° C. for 20 minutes under a nitrogen atmosphere and passed down a Sepharose 4B Column. […] The material in the void volume of the column consisted of the nonvesicular form, whereas the material in the internal volume consisted of the vesicular form.

[8] = tissue distribution of free imidocarb and microreservoir-borne imidocarb; assay type: in vivo, rats; details: 4 hours after injection
Excerpt: Various tissues, such as muscle, spleen, liver and kidney, were taken from the animals. These tissues were combusted in a Searle combustion apparatus and the resulting ^14 CO2 was collected and counted for radioactivity.

[9] = plasma kinetics of imidocarb in rats, tail vein injection; assay type: in vivo; details: 24 hours (FIG. 24)
Protocol: Plasma samples were taken at various time points and the amount of imidocarb in these samples was determined by measurements of their radio-activity.

In the case of `COc1cccc2c1C(=O)c1c(O)c3c(c(O)c1C2=O)C[C@@](O)(C(C)=O)C[C@@H]3O[C@H]1C[C@H](N)[C@H](O)[C@H](C)O1` [daunomycin], the toxicity [1] is given as “known to be toxic, particularly since it tends to concentrate in the heart tissues”, the “presence in the bloodstream after 3 3/4 hours” value ([2]; printed "33/4 hours", 4 mg/kg iv) is given as “virtually absent from the bloodstream” and the concentration at 0.25 h ([2]; rat, in vivo, iv, 4 mg/kg) is given as roughly 400 ng/mL. The concentration at 1 h ([2]; rat, in vivo, iv, 10 mg/kg) was roughly 500 ng/mL, the concentration at 3 h ([2]; rat, in vivo, iv, 10 mg/kg) was roughly 300 ng/mL and the concentration at 6 h ([2]; rat, in vivo, iv, 10 mg/kg) was roughly 140 ng/mL. The “fraction left to reach the target tissue” value [3] was roughly 5%, the “fraction that has left the bloodstream within two minutes” value [3] was “about 95%” and the “chemotherapeutic effect / toxicity (survivors)” value (P388 tumor cells) was “demonstrated a toxicity measurably greater than the tumor cells”. For the same compound, the “degradation by thin layer chromatograms of the centrifugates” value [4] was “no evidence of degradation”.

For `COc1cccc2c1C(=O)c1c(O)c3c(c(O)c1C2=O)C[C@@](O)(C(=O)CO)C[C@@H]3O[C@H]1C[C@H](N)[C@H](O)[C@H](C)O1` [adriamycin], the “therapeutic effect / survivors” value (L1210 leukemic cells) is listed as “some therapeutic effect for a short period of time; also recorded: all of the control mice and those receiving the free adriamycin had succumbed to leukemia and/or the toxic effect of the drug”, the “solubility in aqueous buffer / water” value [5] is listed as “water soluble” and the “binding of adriamycin to the microreservoirs relative to daunomycin” value [6] is listed as “does not bind as strongly to the microreservoirs as does, for example, daunomycin”. For the same compound, the “bound adriamycin vs amount of phosphatidic acid” value ([6]; 80 μmoles total phospholipid, 20 μmoles cholesteryl oleate, 2 mg adriamycin, pH 7.2) was “increases with increasing amounts of phosphatidic acid”, the “phosphatidic acid content up to which bound adriamycin increases before levelling off” value ([6]; relative to total lipids) was “about 25 mole %” and the “toxicity (survival at 30 days)” value (normal mice) was “highly toxic; also recorded: survival of only one mouse”.

In the case of `CCCCC(=O)OCC(=O)C1(O)Cc2c(O)c3c(c(O)c2C(OC2CC(NC(=O)C(F)(F)F)C(O)C(C)O2)C1)C(=O)c1c(OC)cccc1C3=O` (stereo not drawn) [AD 32, N-Trifluoroacetyladriamycin-14-Valerate], the antitumor activity (L1210 leukemia system) is listed as “significantly greater antitumor activity than adriamycin or daunomycin”, the “solubility in aqueous buffer / water” value [5] is listed as “totally insoluble in an aqueous buffer” and the antitumor activity (P388 leukemia system) is listed as “significantly greater antitumor activity than adriamycin or daunomycin”.

In the case of `CCCCCCCCCCC(=O)O[C@H]1CC[C@H]2[C@@H]3CCc4cc(O)ccc4[C@H]3CC[C@]12C` [estradiol undecanoate], the “solubility in aqueous buffer / water” value [5] is listed as “essentially insoluble in water”, the “efflux / retention of estradiol undecanoate” value ([7]; incubated with unsonicated egg phosphatidyl choline dispersion) is listed as “remained associated with both forms of the microreservoirs” and the “affinity for vesicular vs nonvesicular microreservoirs” value ([7]; ratio of estradiol undecanoate to cholesteryl oleate) is listed as “higher affinity for the vesicular form of the microreservoirs than for the nonvesicular form”.

For `O=C(Nc1cccc(C2=NCCN2)c1)Nc1cccc(C2=NCCN2)c1` [imidocarb], the “tissue distribution, Kidney” value ([8]; kidney) was 40,194 dpm/gram of tissue, the “tissue distribution, Liver” value ([8]; liver) was 27,059 dpm/gram of tissue and the “tissue distribution, Muscle” value ([8]; muscle) was 3,985 dpm/gram of tissue. The “tissue distribution, Spleen” value ([8]; spleen) was 9,498 dpm/gram of tissue and the “imidocarb in the bloodstream after 24 hours” value [9] was “virtually none”.
